Source: patent US20090181003A1, “Regulation of S6 Kinsase Protein Activity and Related Methods” (priority 2005, published 2009)

What was measured:
S6K1 K516 acetylation = S6K1 K516 acetylation in serum-stimulated NIH 3T3 cells treated with signal transduction inhibitors (Ac-K516 immunoblot); type: cell-based; conditions: 50 nM Rapamycin, 20 μM LY294002 or 10 μM PD98059 30 minutes before serum stimulation, lysed after 1 hr
Description: In this study, NIN3T3 cells were starved and stimulated with serum for various period of time. Total cell lysates were separated by SDS-PAGE and immunoblotted with acetyl-K516 antibodies. In FIG. 10B, the effect of various cell signalling inhibitors on K516 acetylation is shown. In this study, NIH3T3 cells were starved and treated with 50 nM Rapamycin (mTor inhibitor), 20 μM LY294002 (phosphatidylinositol 3′-kinase inhibitor), 10 μM PD98059 (MAP kinase inhibitor) or vehicle alone thirty minutes before stimulation with serum. Then, cells were stimulated with serum for one hour and lysed. The supernatants of total lysates were separated by SDS-PAGE and Western blotted with acetyl-K516 antibodies. […] The wtS6K and K516R mutants were transiently expressed in Hek293 cells. Immunoprecipitated recombinant S6Ks and total cell lysates were resolved by gel electrophoresis and immunoblotted with antibodies specific for EE tag, pT412 and actin.
Furthermore, the effect of signal transduction inhibitors on K516 acetylation was studied in NIH 3T3 cell. In this experiment, cells were serum starved and treated with rapamycin, LY and PD for 30 minutes before serum stimulation. Cells were lysed 1 hr hour after stimulation and the lysates separated by SDS-PAGE and immunoblotted with Ac-K516, pT412 antibodies.

S6 kinases = experiment: S6 kinase acetylation in HEK 293 cells cotransfected with EE-tagged S6 kinases and p300 (anti-acetylated lysine immunoblot); type: cell-based; conditions: HEK 293 cells with overexpressed p300; TSA 660 nM for 12 hours
Description: In FIG. 2A, recombinant S6 kinases were acetylated in vitro using the purified acetyltransferase domain of p300 or full length PCAF and ^14C-labelled acetyl CoA. Proteins were resolved by SDS-PAGE and acetylated proteins were analysed by phosphorimaging (Bio-rad). In FIG. 2B, recombinant S6K2 or GST were subject to in vitro acetylation reactions with p300 and 14C AcCoA. Recombinant PKB/Akt, PKCa, PDK1 and PI3K (p85a/p110a) were purified using baculovirus expression system. In vitro acetylation assay was carried out as previously described. In FIG. 2D, HEK 293 cells were transfected with S6 kinases in the absence or presence of Gal4-p300 as shown. Cells were treated with medium containing either solvent control or TSA to a final concentration of 660 nM for twelve hours prior to harvesting. Recombinant S6 kinases were immunoprecipitated using the EE-antibody and acetylated S6 kinase was detected by western blotting with polyclonal acetylated lysine antibodies (Upstate). The level of immunoprecipitated S6K1 and S6K2 was analysed by reprobing the membranes with specific antibodies. The expression of Gal4-p300 was tested in total lysates using anti-Gal4 antibodies.
In order to test whether S6 kinase proteins are subject to acetylation within cells, HEK 293 cells were cotransfected with EE-tagged S6 kinases and p300. […]

S6 kinase = S6 kinase activation in C2C12 myoblasts by western blotting (pT412, phospho-rpS6), TSA dose course; type: cell-based; conditions: 18 hours, doses of 500 nM TSA and above
Description: In FIG. 6A (upper panel), C2C12 myoblasts were treated for 18 hours with increasing concentrations of TSA or with the structurally unrelated HDAC inhibitor, sodium butyrate. Endogenous S6 kinase activity was assessed by western blotting against pT412 and against phosho-rpS6. In another experiment, C2C12 cells were treated with 1 μM TSA or control for the times shown and S6 kinase activity was measured by in vitro kinase assay using purified ribosomes as substrate (FIG. 6B). A representative autoradiograph is shown beneath the graph.
Since phosphorylation of multiple residues in S6 kinases has a potent effect on their kinase activity, it was interesting to see whether acetylation, an alternative post-translational modification, may also modulate the S6 kinase enzyme activity. Although kinase acetylation has not been described to date, there are examples of enzymes whose activity is regulated by p300-mediated acetylation, including Fen 1 (Hasan et al. (2001) Mol. Cell. 7, 1221-1231) and DNA polymerase beta (Hasan et al. (2002) Mol. Cell. 10, 1213-1222). In order to test whether S6 kinase acetylation may affect its kinase activity in vivo, C2C12 myoblasts were treated with a dose course of TSA. S6 kinase activation was analysed by western blotting with an antibody specific for phospho-threonine 412 and also with an antibody against the phosphorylated form of rpS6. […]

S6K = S6K activity after deacetylase inhibition in a range of cell types (western blot, immune complex kinase assay); type: cell-based
Description: (§1) (A) The cell lines indicated (see text) were treated with TSA and nicotinamide for eight hours. Following lysis, proteins were resolved by SDS-PAGE and western blots were probed as labelled to evaluate S6K activation. (B) MKOC cells (see text) were treated as in (A) and analysed by western blotting. S6K1 was also immunoprecipitated from lysates and subjected to immune complex kinase assay.
(§2) Histone deacetylase inhibitors downregulate S6K activity in a range of different cell types. In order to test the model that S6K acetylation may be playing a role in its de-activation, the effect of TSA on S6K activity was analysed in a number of cell types, some of which contain mutations in the pathways leading to S6K activation, thus affording a genetic analysis of this phenomenon. […] PC-3 is a PTEN-null prostate cancer cell line in which basal PKB and S6K activation is high due to deregulation of PI3K signalling. […] The MKOC cell line was derived from a renal tumour removed from a Tsc2^−/− mouse. Since these cells lack Tsc2, S6K activity is uncoupled from both PKB and the tuberous sclerosis complex heterodimer. […] It should be noted that, although the same trend (reduced S6K phosphorylation and activity following treatment with deacetylase inhibitors) is seen in all the cell lines tested, the magnitude of this effect does vary. […]

4EBP1 (target of mTOR) = experiment: Phospho-4EBP1 blotting in MKOC cells; type: cell-based, mouse; conditions: TSA treatment
Description: as §1, §2

[1] = biological target: T1, recombinant purified S6K1 (Homo sapiens, UniProt P23443); experiment: In vitro kinase assay with recombinant purified S6K in presence or absence of deacetylase inhibitors; type: biochemical; conditions: presence or absence of TSA and nicotinamide
T1 construct: made in house; host or cells: insect cells (baculovirus)
Description: as §1
Firstly, that TSA is not a specific inhibitor of HDAC activity but that it is also a direct S6K inhibitor in the classical sense. […] In order to test the former explanation, that TSA is a direct S6K inhibitor, in vitro kinase assays were conducted using recombinant purified S6K in the presence or absence of TSA and nicotinamide (FIG. 6C).

T1 sequence (P23443 whole entry): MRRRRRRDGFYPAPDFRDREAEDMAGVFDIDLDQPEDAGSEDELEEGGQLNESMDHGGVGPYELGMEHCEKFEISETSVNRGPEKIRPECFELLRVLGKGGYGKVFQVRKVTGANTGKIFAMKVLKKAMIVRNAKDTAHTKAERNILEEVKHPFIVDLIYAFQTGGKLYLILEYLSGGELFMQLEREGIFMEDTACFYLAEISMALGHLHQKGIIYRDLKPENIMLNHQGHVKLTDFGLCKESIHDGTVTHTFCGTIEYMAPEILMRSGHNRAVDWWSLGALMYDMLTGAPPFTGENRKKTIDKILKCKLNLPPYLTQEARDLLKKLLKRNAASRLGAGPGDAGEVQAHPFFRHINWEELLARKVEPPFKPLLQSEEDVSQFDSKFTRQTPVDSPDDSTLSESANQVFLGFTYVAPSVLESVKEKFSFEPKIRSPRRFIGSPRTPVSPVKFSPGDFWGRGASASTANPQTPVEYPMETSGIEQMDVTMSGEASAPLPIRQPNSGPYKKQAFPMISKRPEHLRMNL

Compound: COc1cccc(-c2cc(=O)c3ccccc3o2)c1N [PD98059]
- acetylation of S6K1 at K516 (S6K1 K516 acetylation): not affected

Compound: CC(/C=C/C(=O)NO)=C\[C@@H](C)C(=O)c1ccc(N(C)C)cc1 [TSA, Trichostatin A]
- level of S6 kinase acetylation (S6 kinases): significantly increased
- S6 kinase activation (phospho-threonine 412 and S6 protein phosphorylation) (S6 kinase): potently inhibited
- S6K activity (S6K; MKOC cells (Tsc2-/- mouse renal tumour)): reduction of S6K activity
- S6K activity (S6K; PC-3 cells (PTEN-null prostate cancer cell line)): inhibited
- phospho-4EBP1 phosphorylation status (4EBP1 (target of mTOR)): unaffected
- S6K activity in vitro (direct kinase inhibition) [1]: does not indicate that TSA inhibits S6K activity in vitro
